Data set [1] concerns methicillin resistant Staph. aureus (MRSA). In kind it is cell-based, Staphylococcus aureus. The note with it: for MIC: MH medium, 37° C., 24 h; for MIC GM, MRSA: geometric mean of MIC from 8 different isolates of MRSA. On the procedure: (§1) MICs were determined by a standard microtiter dilution method in Mueller Hinton (MH) medium. Briefly, cells were grown overnight at 37° C. in MH broth and were diluted in the same medium. Serial dilutions of the peptides were added to the microtiter plates in a volume of 50 μl, followed by the addition of 50 μl of bacteria to give a final inoculum of 5×10^5 colony-forming units (CFU)/mL. The plates were incubated at 37° C. for 24 h, and the MICs were determined as the lowest peptide concentration that inhibited growth.
(§2) Various peptides of the invention were tested for antimicrobial activity as described in Example 1. The antimicrobial activity of these peptides was similarly tested against Gram-positive organisms, including Staphylococcus aureus.

For data set [2], the system named is methicillin sensitive Staph. aureus (MSSA). The class given is cell-based, Staphylococcus aureus. The note with it: for MIC: MH medium, 37° C., 24 h; for MIC GM, MSSA: geometric mean of MIC from 12 different isolates of MSSA. Here is the method: as §1, §2
Data set [3] has as its system human red blood cells. To be noted: for Fold improvement in HC50: compared to D-Piscidin 1 or D-Dermaseptin S4, 18 hours.
Description: Peptide samples (concentrations determined by amino acid analysis) were added to 1% human erythrocytes in phosphate-buffered saline (100 mM NaCl, 80 mM Na2HPO4, 20 mM NaH2PO4, pH 7.4) and the reaction mixtures were incubated at 37° C. for 18 h in microtiter plates. Two-fold serial dilutions of the peptide samples were carried out. This determination was made by withdrawing aliquots from the hemolysis assays and removing unlysed erythrocytes by centrifugation (800×g). Hemoglobin release was determined spectrophotometrically at 570 nm. The control for 100% hemolysis was a sample of erythrocytes treated with water or 0.1% Triton-X 100. The control for no release of hemoglobin was a sample of 1% erythrocytes without any peptide added. […] The hemolytic activity was determined as the peptide concentration that caused 50% hemolysis of erythrocytes after 18 h (HC50). HC50 as determined from a plot of percent lysis versus peptide concentration (μM). The inventors also determined the hemolytic activity after 1 hour at 37° C.

Values after ≈ are worked out from the molar mass of the structure shown. Where two headings read alike, the source gives them in different places.

In general, MIC refers to the least concentration at which growth counts as inhibited. The low end stands for inhibition by little substance, the high end for a need for much substance. For `CC[C@@H](C)[C@@H](NC(=O)CNC(=O)[C@@H](CCCNC(=N)N)NC(=O)[C@@H](Cc1ccccc1)NC(=O)[C@H](NC(=O)[C@@H](Cc1c[nH]cn1)NC(=O)[C@@H](Cc1c[nH]cn1)NC(=O)[C@@H](Cc1ccccc1)NC(=O)[C@H](N)Cc1ccccc1)[C@H](C)CC)C(=O)N[C@@H](C(=O)N[C@H](Cc1c[nH]cn1)C(=O)N[C@@H](C(=O)NCC(=O)N[C@H](CCCCN)C(=O)N[C@@H](C(=O)N[C@@H](C(=O)N[C@H](Cc1c[nH]cn1)C(=O)N[C@H](CCCNC(=N)N)C(=O)N[C@H](CC(C)C)C(=O)N[C@@H](C(=O)N[C@@H](C(=O)NCC(N)=O)[C@H](C)O)C(C)C)[C@H](C)CC)[C@H](C)O)C(C)C)C(C)C` [D-Piscidin 1, reference compound], the MIC in data set [1] (MRSA strain M21742 (nose)), in data set [1] (MRSA strain M21756 (nose)), in data set [1] (MRSA strain M22111 (ear)), in data set [1] (MRSA strain M22130), in data set [1] (MRSA strain M22224 (leg)) and in data set [1] (MRSA strain M22354) was 3.0 µM (≈ 7.71 µg/mL) each time. For the same molecule, the MIC in data set [1] (MRSA strain M22360 (labia)) came to 1.5 µM (≈ 3.86 µg/mL); in data set [1] (MRSA strain M22424 (arm)), 3.0 µM (≈ 7.71 µg/mL); in data set [2] (MSSA strain BL7429), 3.0 µM (≈ 7.71 µg/mL); in data set [2] (MSSA strain M21913) it was 3.0 µM (≈ 7.71 µg/mL); in data set [2] (MSSA strain M21935), 3.0 µM (≈ 7.71 µg/mL); in data set [2] (MSSA strain M21991), 6.1 µM (≈ 15.7 µg/mL). Further, the MIC in data set [2] (MSSA strain M22075) turned out to be 3.0 µM (≈ 7.71 µg/mL); in data set [2] (MSSA strain M22097), 6.1 µM (≈ 15.7 µg/mL); in data set [2] (MSSA strain M22111) it was 1.5 µM (≈ 3.86 µg/mL); in data set [2] (MSSA strain M22274), 3.0 µM (≈ 7.71 µg/mL); in data set [2] (MSSA strain M22287), 3.0 µM (≈ 7.71 µg/mL); in data set [2] (MSSA strain M22300), 3.0 µM (≈ 7.71 µg/mL). In addition, the results for the MIC in data set [2] (MSSA strain M22312) and in data set [2] (MSSA strain M22315) were 6.1 µM (≈ 15.7 µg/mL) and 3.0 µM (≈ 7.71 µg/mL), respectively. The “MIC GM, MRSA” value in data set [1] worked out at 2.8 µM (≈ 7.2 µg/mL). Moreover, the “MIC GM, MSSA” value in data set [2] worked out at 3.4 µM (≈ 8.74 µg/mL). The “Fold improvement in HC50” value in data set [3] was found to be 1.0 fold.

Turning to `CC[C@@H](C)[C@@H](NC(=O)[C@H]1CCCN1C(=O)[C@@H](CCCNC(=N)N)NC(=O)[C@@H](Cc1ccccc1)NC(=O)[C@H](NC(=O)[C@@H](Cc1c[nH]cn1)NC(=O)[C@@H](Cc1c[nH]cn1)NC(=O)[C@@H](Cc1ccccc1)NC(=O)[C@H](N)Cc1ccccc1)[C@H](C)CC)C(=O)N[C@@H](C(=O)N[C@H](Cc1c[nH]cn1)C(=O)N[C@@H](C(=O)NCC(=O)N[C@H](CCCCN)C(=O)N[C@@H](C(=O)N[C@@H](C(=O)N[C@H](Cc1c[nH]cn1)C(=O)N[C@H](CCCNC(=N)N)C(=O)N[C@H](CC(C)C)C(=O)N[C@@H](C(=O)N[C@@H](C(=O)NCC(N)=O)[C@H](C)O)C(C)C)[C@H](C)CC)[C@H](C)O)C(C)C)C(C)C` [D-Piscidin 1 G8P], the “fold increase in hemolytic activity from 1 to 18 hours” value in data set [3] (HC50 1 hour vs 18 hours at 37° C.) is 7 fold.

Turning to `CSCC[C@@H](NC(=O)[C@@H](Cc1c[nH]c2ccccc12)NC(=O)[C@@H](CC(C)C)NC(=O)[C@@H](C)N)C(=O)N[C@@H](C(=O)N[C@H](CC(C)C)C(=O)N[C@H](CC(C)C)C(=O)N[C@H](CCCCN)C(=O)N[C@H](CCCCN)C(=O)N[C@@H](C(=O)N[C@H](CC(C)C)C(=O)N[C@H](CCCCN)C(=O)N[C@H](C)C(=O)N[C@H](C)C(=O)N[C@H](C)C(=O)N[C@H](CCCCN)C(=O)N[C@H](C)C(=O)N[C@H](CC(C)C)C(=O)N[C@H](CC(N)=O)C(=O)N[C@H](C)C(=O)N[C@@H](C(=O)N[C@H](CC(C)C)C(=O)N[C@@H](C(=O)NCC(=O)N[C@H](C)C(=O)N[C@H](CC(N)=O)C(=O)N[C@H](C)C(N)=O)C(C)C)C(C)C)C(C)C)[C@H](C)O` [D-Dermaseptin S4, reference compound], the MIC amounted to 5.6 µM (≈ 15.6 µg/mL) in data set [1] (MRSA strain M21742 (nose)); 2.8 µM (≈ 7.78 µg/mL) in data set [1] (MRSA strain M21756 (nose)); 5.6 µM (≈ 15.6 µg/mL) in data set [1] (MRSA strain M22111 (ear)); 5.6 µM (≈ 15.6 µg/mL) in data set [1] (MRSA strain M22130); 5.6 µM (≈ 15.6 µg/mL) in data set [1] (MRSA strain M22224 (leg)); 5.6 µM (≈ 15.6 µg/mL) in data set [1] (MRSA strain M22354). Moreover, the MIC in data set [1] (MRSA strain M22360 (labia)) worked out at 5.6 µM (≈ 15.6 µg/mL); in data set [1] (MRSA strain M22424 (arm)), 11.3 µM (≈ 31.4 µg/mL); in data set [2] (MSSA strain BL7429) it was 2.8 µM (≈ 7.78 µg/mL); in data set [2] (MSSA strain M21913), 5.6 µM (≈ 15.6 µg/mL); in data set [2] (MSSA strain M21935) it was 5.6 µM (≈ 15.6 µg/mL); in data set [2] (MSSA strain M21991), 5.6 µM (≈ 15.6 µg/mL). For the same molecule, the MIC in data set [2] (MSSA strain M22075) is 2.8 µM (≈ 7.78 µg/mL); in data set [2] (MSSA strain M22097), 5.6 µM (≈ 15.6 µg/mL); in data set [2] (MSSA strain M22111) it was 5.6 µM (≈ 15.6 µg/mL); in data set [2] (MSSA strain M22274), 11.3 µM (≈ 31.4 µg/mL); in data set [2] (MSSA strain M22287) it was 5.6 µM (≈ 15.6 µg/mL); in data set [2] (MSSA strain M22300), 5.6 µM (≈ 15.6 µg/mL). The MIC in data set [2] (MSSA strain M22312) and in data set [2] (MSSA strain M22315) was 11.3 µM (≈ 31.4 µg/mL) in each case. Besides, in data set [1], the “MIC GM, MRSA” value amounted to 5.6 µM (≈ 15.6 µg/mL). In addition, the “MIC GM, MSSA” value in data set [2] worked out at 6.0 µM (≈ 16.7 µg/mL). In addition, in data set [3], the “Fold improvement in HC50” value came out at 1.0 fold.

With `CC[C@@H](C)[C@@H](NC(=O)CNC(=O)[C@@H](CCCNC(=N)N)NC(=O)[C@@H](Cc1ccccc1)NC(=O)[C@H](NC(=O)[C@@H](Cc1c[nH]cn1)NC(=O)[C@@H](Cc1c[nH]cn1)NC(=O)[C@@H](Cc1ccccc1)NC(=O)[C@H](N)Cc1ccccc1)[C@H](C)CC)C(=O)N[C@@H](C(=O)N[C@H](Cc1c[nH]cn1)C(=O)N[C@H](CCCCN)C(=O)NCC(=O)N[C@H](CCCCN)C(=O)N[C@@H](C(=O)N[C@@H](C(=O)N[C@H](Cc1c[nH]cn1)C(=O)N[C@H](CCCNC(=N)N)C(=O)N[C@H](CC(C)C)C(=O)N[C@@H](C(=O)N[C@@H](C(=O)NCC(N)=O)[C@H](C)O)C(C)C)[C@H](C)CC)[C@H](C)O)C(C)C` [D-Piscidin 1 V12K], the minimal inhibitory concentration (MIC) in data set [1] (MRSA strain M21742 (nose)) stood at 385 µM (≈ 1000 µg/mL); in data set [1] (MRSA strain M21756 (nose)) it was 385 µM (≈ 1000 µg/mL); in data set [1] (MRSA strain M22111 (ear)), 96.1 µM (≈ 250 µg/mL); in data set [1] (MRSA strain M22130), 96.1 µM (≈ 250 µg/mL); in data set [1] (MRSA strain M22224 (leg)), 96.1 µM (≈ 250 µg/mL); in data set [1] (MRSA strain M22354) it was 96.1 µM (≈ 250 µg/mL). The minimal inhibitory concentration (MIC) in data set [1] (MRSA strain M22360 (labia)) amounted to 3.0 µM (≈ 7.8 µg/mL); in data set [1] (MRSA strain M22424 (arm)) it was 769 µM (≈ 2000 µg/mL); in data set [2] (MSSA strain BL7429), 385 µM (≈ 1000 µg/mL); in data set [2] (MSSA strain M21913), 769 µM (≈ 2000 µg/mL); in data set [2] (MSSA strain M21935) it was 192 µM (≈ 499 µg/mL); in data set [2] (MSSA strain M21991) it was 769 µM (≈ 2000 µg/mL). Further, the minimum inhibitory concentration (MIC) worked out at 385 µM (≈ 1000 µg/mL) in data set [2] (MSSA strain M22075); 385 µM (≈ 1000 µg/mL) in data set [2] (MSSA strain M22097); 6.0 µM (≈ 15.6 µg/mL) in data set [2] (MSSA strain M22111); 769 µM (≈ 2000 µg/mL) in data set [2] (MSSA strain M22274); 192 µM (≈ 499 µg/mL) in data set [2] (MSSA strain M22287); 24.0 µM (≈ 62.4 µg/mL) in data set [2] (MSSA strain M22300). Besides, the MIC in data set [2] (MSSA strain M22312) was 769 µM (≈ 2000 µg/mL); in data set [2] (MSSA strain M22315), 192 µM (≈ 499 µg/mL). For the same molecule, in data set [1], the “MIC GM, MRSA” value was determined as 114 µM (≈ 296 µg/mL). The “MIC GM, MSSA” value in data set [2] was determined as 229 µM (≈ 595 µg/mL). Besides, in data set [3], the “Fold improvement in HC50” value amounted to 19 fold.

With `CC[C@@H](C)[C@@H](NC(=O)CNC(=O)[C@@H](CCCNC(=N)N)NC(=O)[C@@H](Cc1ccccc1)NC(=O)[C@H](NC(=O)[C@@H](Cc1c[nH]cn1)NC(=O)[C@@H](Cc1c[nH]cn1)NC(=O)[C@@H](Cc1ccccc1)NC(=O)[C@H](N)Cc1ccccc1)[C@H](C)CC)C(=O)N[C@@H](C(=O)N[C@H](Cc1c[nH]cn1)C(=O)N[C@@H](C(=O)N[C@H](CCCCN)C(=O)N[C@H](CCCCN)C(=O)N[C@@H](C(=O)N[C@@H](C(=O)N[C@H](Cc1c[nH]cn1)C(=O)N[C@H](CCCNC(=N)N)C(=O)N[C@H](CC(C)C)C(=O)N[C@@H](C(=O)N[C@@H](C(=O)NCC(N)=O)[C@H](C)O)C(C)C)[C@H](C)CC)[C@H](C)O)C(C)C)C(C)C` [D-Piscidin 1 G13K], the “Fold improvement in HC50” value in data set [3] is 3.9 fold.
